Reference: ChEMBL document CHEMBL5236635, “Structure-Based Drug Design and Synthesis of Novel N-Aryl-2,4-bithiazole-2-amine CYP1B1-Selective Inhibitors in Overcoming Taxol Resistance in A549 Cells” (J Med Chem, 2022)
The source made the active and inactive calls. The rule behind the calls is not given here.

Columns and labels:
NCI-H460 [1] = assay: Inhibition of cell migration in DMBA-induced human NCI-H460 cells at 5 uM incubated for 48 hrs by inverted microscopic analysis; format: functional, cell-based
NCI-H460 [2] = assay: Inhibition of DMBA-induced CYP1B1 overexpression in human NCI-H460 cells assessed as effect on Snail level at 5 uM incubated for 24 hrs by densitometry analysis; format: functional, cell-based
A549/TR [3] = assay: Reversal of taxol resistance in human A549/Taxol cells assessed as increase in Rho123 accumulation at 5 uM incubated for 20 mins by multimode plate reader analysis; format: functional, cell-based
A549 [4] = assay: Upregulation of DMBA-induced CYP1B1 expression level in human A549 cells incubated for 24 hrs; format: functional, cell-based; conditions: dose 1-10 µM
CYP1B1 = biological target: T1, CYP1B1 (Homo sapiens, UniProt Q16678); assay: Inhibition of recombinant human CYP1B1 assessed as inhibition ratio at 100 nM using 7-ethyl-0-resorufin as substrate incubated for 30 mins in presence of NADPH by EROD assay relative to control; conditions: recombinant enzyme
T1 sequence (Q16678 whole entry): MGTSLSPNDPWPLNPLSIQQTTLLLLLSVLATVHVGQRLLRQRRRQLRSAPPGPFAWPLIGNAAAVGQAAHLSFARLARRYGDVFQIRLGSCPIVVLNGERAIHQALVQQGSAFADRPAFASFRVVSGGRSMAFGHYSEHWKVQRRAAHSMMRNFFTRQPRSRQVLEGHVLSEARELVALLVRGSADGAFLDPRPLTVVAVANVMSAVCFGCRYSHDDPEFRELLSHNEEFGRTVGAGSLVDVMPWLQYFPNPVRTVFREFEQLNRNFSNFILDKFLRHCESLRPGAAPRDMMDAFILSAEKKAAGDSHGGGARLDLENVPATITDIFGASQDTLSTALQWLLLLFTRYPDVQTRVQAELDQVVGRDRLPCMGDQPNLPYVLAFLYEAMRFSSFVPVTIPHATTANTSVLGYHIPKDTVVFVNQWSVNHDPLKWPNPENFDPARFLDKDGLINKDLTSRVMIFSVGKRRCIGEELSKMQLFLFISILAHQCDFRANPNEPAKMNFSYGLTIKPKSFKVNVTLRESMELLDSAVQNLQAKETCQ

A549 [5] = assay: Inhibition of DMBA-induced CYP1B1 overexpression in human A549 cells assessed as increase in SRC level at 5 uM incubated for 24 hrs by densitometry analysis; format: functional, cell-based
A549 [6] = assay: Inhibition of DMBA-induced AKT overexpression in human taxol resistance A549 cells incubated for 24 hrs; format: functional, cell-based; conditions: dose 5.0 µM
NCI-H460 [7] = assay: Inhibition of DMBA-induced CYP1B1 overexpression in human NCI-H460 cells assessed as increase in N-cadherin level incubated for 24 hrs by densitometry analysis; format: functional, cell-based; conditions: dose 5.0 µM
NCI-H460 [8] = assay: Inhibition of DMBA-induced AKT overexpression in human taxol resistance NCI-H460 cells at 5 uM incubated for 24 hrs; format: functional, cell-based
A549 [9] = assay: Inhibition of DMBA-induced ERK1/2 overexpression in human taxol resistance A549 cells at 5 uM incubated for 24 hrs; format: functional, cell-based
A549 [10] = assay: Inhibition of DMBA-induced CYP1B1 expression level in human A549 cells at 5 uM incubated for 24 hrs; format: functional, cell-based
A549 [11] = assay: Inhibition of DMBA-induced CYP1B1 overexpression in human A549 cells assessed as increase in FAK level incubated for 24 hrs by densitometry analysis; format: functional, cell-based; conditions: dose 5.0 µM
NCI-H460 [12] = assay: Inhibition of DMBA-induced CYP1B1 overexpression in human NCI-H460 cells assessed as increase in SRC level incubated for 24 hrs by densitometry analysis; format: functional, cell-based; conditions: dose 5.0 µM
NCI-H460 [13] = assay: Inhibition of DMBA-induced CYP1B1 overexpression in human NCI-H460 cells assessed as decrease in E-cadherin level incubated for 24 hrs by densitometry analysis; format: functional, cell-based; conditions: dose 5.0 µM
NCI-H460 [14] = assay: Inhibition of DMBA-induced CYP1B1 overexpression in human NCI-H460 cells assessed as increase in SRC level at 5 uM incubated for 24 hrs by densitometry analysis; format: functional, cell-based
NCI-H460 [15] = assay: Inhibition of DMBA-induced CYP1B1 overexpression in human NCI-H460 cells assessed as effect on E-cadherin level at 5 uM incubated for 24 hrs by densitometry analysis; format: functional, cell-based
A549/TR [16] = assay: Synergistic antiproliferative activity against human A549/Taxol cells assessed as increase in taxol by measuring combination index at 30 uM incubated for 72 hrs in presence of 1 uM taxol by MTT assay; format: functional
A549/TR [17] = assay: Synergistic antiproliferative activity against human A549/Taxol cells assessed as inhibition of cell growth at 3.75 to 30 uM incubated for 72 hrs in presence of taxol by MTT assay; format: functional; set-up: scale not given: the % may be the effect or the level left; conditions: dose 3.75-30 µM
A549/TR [18] = assay: Synergistic antiproliferative activity against human A549/Taxol cells assessed as increase in taxol by measuring combination index at 7.50 uM incubated for 72 hrs in presence of 0.50 uM taxol by MTT assay; format: functional; conditions: dose 7.5 µM
A549/TR [19] = assay: Synergistic antiproliferative activity against human A549/Taxol cells assessed as increase in taxol by measuring combination index at 7.50 uM incubated for 72 hrs in presence of 0.06 uM taxol by MTT assay; format: functional; conditions: dose 7.5 µM
A549/TR [20] = assay: Reversal of taxol resistance in human A549/Taxol cells assessed as increase in Rho123 accumulation at 2.5 to 10 uM incubated for 20 mins by multimode plate reader analysis; format: functional, cell-based; conditions: dose 2.5-10 µM
A549/TR [21] = assay: Synergistic antiproliferative activity against human A549/Taxol cells assessed as increase in taxol by measuring combination index at 30 uM incubated for 72 hrs in presence of 0.06 uM taxol by MTT assay; format: functional
A549/TR [22] = assay: Synergistic antiproliferative activity against human A549/Taxol cells assessed as increase in taxol by measuring combination index at 3.75 uM incubated for 72 hrs in presence of 0.50 uM taxol by MTT assay; format: functional
A549/TR [23] = assay: Synergistic antiproliferative activity against human A549/Taxol cells assessed as increase in taxol by measuring combination index at 15 uM incubated for 72 hrs in presence of 0.50 uM taxol by MTT assay; format: functional
A549/TR [24] = assay: Reversal of taxol resistance in human A549/Taxol cells assessed as suppression of P-gp expression level at 2.5 to 10 uM incubated for 20 mins by multimode plate reader analysis; format: functional, cell-based; conditions: dose 2.5-10 µM
A549/TR [25] = assay: Synergistic antiproliferative activity against human A549/Taxol cells assessed as increase in taxol by measuring combination index at 3.75 uM incubated for 72 hrs in presence of 0.25 uM taxol by MTT assay; format: functional
Cytochrome P450 1B1 = biological target: T2, Cytochrome P450 1B1 (Homo sapiens, UniProt Q16678); assay: Inhibition of recombinant human CYP1B1 using 7-ethyl-0-resorufin as substrate incubated for 30 mins in presence of NADPH by EROD assay
T2 sequence (Q16678 whole entry): T1 sequence (Q16678 whole entry)

A549/TR [26] = assay: Synergistic antiproliferative activity against human A549/Taxol cells assessed as increase in taxol by measuring combination index at 3.75 uM incubated for 72 hrs in presence of 0.13 uM taxol by MTT assay; format: functional
A549/TR [27] = assay: Synergistic antiproliferative activity against human A549/Taxol cells assessed as increase in taxol by measuring combination index at 7.50 uM incubated for 72 hrs in presence of 0.13 uM taxol by MTT assay; format: functional; conditions: dose 7.5 µM

With `COc1cc(/C=C/c2ccc(OC)cc2OC)cc(OC)c1` the inhibition (NCI-H460 [1]) was “Active”, the inhibition (NCI-H460 [2]) was “inactive” and the Activity (A549/TR [3]) was “Active”. The Activity (A549 [4]) was “Dose-Dependent Effect”, the inhibition at 0.5 h, 0.1 µM (CYP1B1) was 88.9% and the inhibition (A549 [5]) was “inactive”. For the same molecule, the inhibition (A549 [6]) was “Dose-Dependent Effect”, the inhibition (NCI-H460 [7]) was “Dose-Dependent Effect” and the inhibition (NCI-H460 [8]) was “Active”. For the same molecule, the inhibition (A549 [9]) was “Active”, the inhibition (A549 [10]) was “Active” and the inhibition (A549 [11]) was “Dose-Dependent Effect”. For the same molecule, the inhibition (NCI-H460 [12]) was “Dose-Dependent Effect”, the inhibition (NCI-H460 [13]) was “Dose-Dependent Effect” and the inhibition (NCI-H460 [14]) was “inactive”. The inhibition (NCI-H460 [15]) was “inactive”.
For `COc1cc(Nc2nc(-c3nc(-c4ccccc4F)cs3)cs2)cc(OC)c1`, the CI (A549/TR [16]) was 0.02, the Activity (A549/TR [17]) was 62% and the CI (A549/TR [18]) was 0.66. The CI (A549/TR [19]) was 0.68, the Activity (A549/TR [20]) was “Active” and the CI (A549/TR [21]) was 0.09. The CI (A549/TR [22]) was 0.98, the CI (A549/TR [23]) was 0.4 and the Activity (A549/TR [24]) was “Active”. The CI (A549/TR [25]) was 0.55, the IC50 (Cytochrome P450 1B1) was 6.6 nM and the CI (A549/TR [26]) was 0.55. For the same molecule, the CI (A549/TR [27]) was 0.31.
